From patent US20250222119A1, “ENGINEERING OF MULTIFUNCTIONAL PEPTIDES FOR CONTROLLED DRUG DELIVERY” (The Johns Hopkins University, priority 2022, published 2025) come the findings set out here.

In experiment [1] the test system is normotensive Dutch Belted rabbits. Nature of the experiment: Rabbit IOP measurements after intracameral injection or topical dosing. It counts as in vivo. The note with it: single intracameral injection. How it is done:
For the ICM injection procedure, rabbits were anesthetized with ketamine/xylazine and received topical anesthesia with 0.5% proparacaine hydrochloride. […] After the procedure, topical bacitracin-neomycin-polymyxin ophthalmic ointment was applied to both eyes to prevent infection and dry eyes. […] The IOP were measured immediately before the topical dosing (0 h), and at 2, 4, 6 and 8 h after the eyedrop administration.

A further experiment concerns ARPE-19 cells. Nature of the experiment: Cell-penetration assay with biotinylated peptides in induced and non-induced ARPE-19 cells. It counts as cell-based. The note with it: C-terminal biotinylated peptide 100 μM, 6 h, 37° C. How it is done:
Four 96 well plates per group were seeded at 0.01×10^6 cells/well. ARPE-19 cells were either cultured with DMEM:F12 medium containing 10% FBS according to protocol provided by the vendor (non-induced) or cultured in DMEM high glucose, pyruvate media with […] of ferric ammonium citrate (Wolkow, N. et al., Exp Eye Res 128, 92-101, (2014)) for 2 months (induced) (Kim, Y. C. et al. Drug Deliv Transl Res, doi:10.1007/s13346-021-00987-6 (2021)). The expression of melanin was confirmed visually with bright field microscopy and by measuring absorbance at 475 nm (>0.4 a.u., not shown). Within each plate, 12 wells were randomly selected to quantify the cell numbers with an automated cell counter (Countess 3 Automated Cell Counter, Thermo Fisher) for normalization in the cell uptake study. Next, 100 μL (100 μM in pH 6.5 PBS) of each of the 127 C-terminal biotinylated peptides was added to n=3 wells for both the induced and non-induced ARPE-19 cells for 6 h at 37° C. The cells were then washed thoroughly 5 times with PBS solution to remove extracellular peptide. To quantify cell-associated peptides, the cells were lysed with 100 μL of RIPA lysis buffer at 4 C for 48 h. […] The mean intracellular concentration values were grouped by cell types (induced or non-induced), and the two-sample Wilcoxon test (Mann-Whitney) was calculated using the R function wilcox.test. Intracellular concentration values were also plotted against experimental melanin binding and the relationship was quantified using a simple linear model and its corresponding R^2.
It was next characterized how the predicted cell-penetrating properties of the peptides affected cell uptake in a retinal pigment epithelium (RPE) cell line (ARPE-19). ARPE-19 cells were cultured using standard methods (non-induced, n=3) and using culture conditions that induce melanin production (induced, n=3) (Kim, Y. C. et al., Drug Deliv Transl Res, doi:10.1007/s13346-021-00987-6 (2021)).

`Brc1c(NC2=NCCN2)ccc2nccnc12` [brimonidine]: the “time for the average ΔIOP to return to baseline” value in experiment [1] came out at 8 days. Further, the “peak reduction in IOP from baseline (ΔIOP)” value in experiment [1] (at 2 days, n=5) is reported as −2.6±1.65 mmHg. Turning to FSGKRRKRKPR [HR97], the “cell uptake (intracellular peptide concentration)” value with ARPE-19 cells (non-induced ARPE-19 cells) was found to be 82.5±15.8 pmol/100K cells. On to YGRKKRRQRRR [TAT47-57], for which the “cell uptake (intracellular peptide concentration)” value with ARPE-19 cells (induced (melanin-producing) ARPE-19 cells) worked out at 478±20.8 pmol/100K cells; with ARPE-19 cells (non-induced ARPE-19 cells) it was 58.7±7.43 pmol/100K cells.
